# Measured values reported in patent US5852213A, “Mercaptoketones and mercaptoalcohols and a process for their preparation” (American Cyanamid Company, priority 1997, dated 1998).
# What was measured:
# [1] = tested on: stromelysin; settings: PCT application WO 9407481; cited from earlier work
# [2] = target: T1, human recombinant fibroblast collagenase (Homo sapiens, UniProt P03956); test: Collagenase Inhibition in vitro; assay type: biochemical; settings: read-out: Collagenase IC50 (nM) or % inhibition: % inhibition
# T1 construct: human recombinant fibroblast collagenase (truncated, mw 18,828, WAR, Radnor)
# T1 sequence (P03956 100-269 limits assumed): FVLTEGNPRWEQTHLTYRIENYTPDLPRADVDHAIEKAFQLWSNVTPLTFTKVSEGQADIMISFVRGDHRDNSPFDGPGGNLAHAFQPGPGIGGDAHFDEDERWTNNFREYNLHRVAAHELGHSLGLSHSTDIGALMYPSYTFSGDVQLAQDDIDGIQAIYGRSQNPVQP
# Protocol: Collagenase Inhibition in vitro
# The assay is based on the cleavage of a peptide substrate ((Dnp-Pro-Cha-Gly-Cys(Me)-His-Ala-Lys(NMa)-NH2), Peptide International, Inc.) by collagenase releasing the fluorescent NMa group which is quantitated on the fluorometer. Dnp quenches the NMa fluorescence in the intact substrate. […] Substrate is dissolved in methanol and stored frozen in 1 mM aliquots. […] For the assay, substrate is dissolved in HCBC buffer to a final concentration of 10 μM and collagenase to a final concentration of 5 nM. Compounds are dissolved in methanol, DMSO, or HCBC. The methanol and DMSO are diluted in HCBC to <1%. Compounds are added to the 96 well plate containing enzyme and the reaction is started by the addition of substrate.
# The slope of the line is calculated and represents the reaction rate.
# (§1) The linearity of the reaction rate is confirmed (r^2 >0.85). The mean of the control rate is calculated and compared for statistical significance (p<0.05) with drug-treated rates using Dunnett's multiple comparison test.
# [3] = tested on: human recombinant stromelysin; test: Stromelysin Inhibition in vitro; assay type: biochemical
# Protocol: Stromelysin Inhibition in vitro.
# The increase in OD405 is plotted and the slope of the line is calculated which represents the reaction rate.
# as §1
# [4] = tested on: Collangenase I; test: In vivo MMP Inhibition (enzyme in implanted dialysis tubing); set-up: species or system rat (Sprague-Dawley) or mouse (CD-1)
# Protocol: A 2 cm piece of dialysis tubing (molecular weight cut-off 12-14,000, 10 mm flat width) containing matrix metalloproteinase enzyme (stromelysin, collagenase or gelatinase in 0.5 mL of buffer) is implanted either ip or sc (in the back) of a rat (Sprague-Dawley, 150-200 g) or mouse (CD-1, 25-50 g) under anesthesia. Drugs are administered PO, IP, SC or IV through a canula in the jugular vein. Drugs are administered in a dose volume of 0.1 to 0.25 mL/animal. Contents of the dialysis tubing is collected and enzyme activity assayed.
# Enzyme reaction rates for each dialysis tube are calculated. Tubes from at least 3 different animals are used to calculate the mean±sem. Statistical significance (p<0.05) of vehicle-treated animals versus drug-treated animals is determined by analysis of variance. (Agents and Actions 21: 331, 1987)
# [5] = tested on: MMP; settings: EP 0322,184 A2; cited from earlier work
molecule,measurement,setting,value
CC(C)C[C@H](NC(=O)[C@@H](CS)CCc1ccccc1)C(=O)Nc1ccccc1,inhibitor of the MMP stromelysin,[1],moderate inhibitor
"CCCCCCC[C@H](C[C@@H](O)CS)C(=O)N[C@H](C(=O)NC)C(C)(C)C [Example 37, (2R)-2-((2R)-2-Hydroxy-3-mercaptopropyl)nonanoic acid ((1S)-2,2-dimethyl-1-methylcarbamoylpropyl)amide]",inhibition at 1 µM,[2],72%
"CCCCCCC[C@H](C[C@H](O)CS)C(=O)N[C@H](C(=O)NC)C(C)(C)C [Example 38, (2R)-2-((2S)-2-Hydroxy-3-mercaptopropyl)nonanoic acid ((1S)-2,2-dimethyl-l-methylcarbamoylpropyl)amide]",Stromelysin IC50 (nM) or % inhibition: % inhibition,[3]; @ 0.1 μM,96%
same,in vivo % Collangenase I inhibition,[4]; 50 mpk (milligrams/kilogram),22.2%
"CNC(=O)[C@@H](NC(=O)[C@H](CC(C)C)C[C@@H](O)CS)C(C)(C)C [Example 39, (2R,4R)-4-Hydroxy-2-isobutyl-5-mercaptopentanoic acid ((1S)-2,2-dimethyl-1-methylcarbamoylpropyl)amide]",Stromelysin IC50 (nM) or % inhibition: % inhibition,[3]; @ 300 nM,6%
same,in vivo % Collangenase I inhibition,[4]; 50 mpk (milligrams/kilogram),20.4%
"CNC(=O)[C@@H](NC(=O)[C@H](CC(C)C)C[C@H](O)CS)C(C)(C)C [Example 40, (2R,4S)-4-Hydroxy-2-isobutyl-5-mercaptopentanoic acid ((1S)-2,2-dimethyl-1-methylcarbamoylpropyl)amide]",in vivo % Collangenase I inhibition,[4]; 50 mpk (milligrams/kilogram),84.8%
"CCCCCCC[C@H](CC(=O)CS)C(=O)N[C@H](C(=O)NC)C(C)(C)C [Example 43, (2R)-2-(3-Mercapto-2-oxopropyl)nonanoic acid ((1S)-2,2-dimethyl-1-methylcarbamoylpropyl)amide]",IC50,[3]; read-out: Stromelysin IC50 (nM) or % inhibition: IC50,28 nM
same,in vivo % Collangenase I inhibition,[4]; 50 mpk (milligrams/kilogram),0.73%
"CNC(=O)[C@@H](NC(=O)[C@@H](CC(=O)CS)CC(C)C)C(C)(C)C [Example 44, (2R)-2-Isobutyl-5-mercapto-4-oxopentanoic acid ((1S)-2,2-dimethyl-1-methylcarbamoylpropyl)amide]",Stromelysin IC50 (nM) or % inhibition: % inhibition,[3]; @ 1 μM,58%
same,in vivo % Collangenase I inhibition,[4]; 60 mpk (milligrams/kilogram),4.8%
CNC(=O)[C@H](Cc1ccc(OC)cc1)NC(=O)[C@H](CC(C)C)C(S)CC(C)=O (some centres unmarked) [compound where P is 2-oxopropyl],times more potent than the compound where P is methyl,[5],approximately 20 times
CNC(=O)[C@H](Cc1ccc(OC)cc1)NC(=O)[C@H](CC(C)C)C(C)S (some centres unmarked) [compound where P is methyl],times more potent than the compound where P is hydrogen,[5],approximately 20 times
"(2R,4R)-4-Hydroxy-2-isobutyl-5-tritylsulfanylpentanoic acid ((1S)-2,2-dimethyl-1-methylcarbamoylpropyl)amide [Example 35]",in vivo % Collangenase I inhibition,[4]; 50 mpk (milligrams/kilogram),0.44%
